The results in this text go back to patent US5907038A, “Azepanes” (Hoffmann-La Roche Inc., priority 1995, dated 1999).

Structures can show the parent of a compound that is named as a salt.

Assay [1] addresses protein kinase C (PKC). Briefly: Inhibition of protein kinase C (PKC) (isolated enzyme). Type of assay: biochemical. Particulars: partially purified PKC from swine brain; histone H1 substrate; 32° C., 2 minutes; read-out: IC50 (Test Procedure A). As for the experimental part: A: Inhibition of protein kinase C (PKC) (isolated enzyme): Protein kinase C (PKC) activity is determined by measuring the transfer of ^32 P-labelled phosphate from ^32 P-g-ATP ([…]) to histone H1 ([…]) as the substrate. Partially purified PKC from swine brain is used as the enzyme source [DEAE chromatography according to the method of U. Kikkawa et al. (Methods Enzymol. 99, 288, 1983)]. Activation of the PKC is effected by phospholipid vesicle prepared by ultrasound treatment of a mixture of 0.05 ml of phosphatidylserine (10 mg/ml) and 0.005 ml of diolein (10 mg/ml) in 5 ml of Tris-HCl buffer (20 mM, pH 7.4). The test substances are used in dimethyl sulphoxide (DMSO)/buffer in the concentration range […]. The test is started by the addition of enzyme; after incubation at 32° C. for 2 minutes the reaction is stopped by the addition of 20% trichloroacetic acid (with 1% SDS and 1% sodium pyrophosphate). The precipitated radioactive histone protein is separated from excess ATP by filtration over nitrocellulose membranes and the radioactivity on the filter is measured in a scintillation counter. The inhibitory activity of the test substance is given as the micromolar concentration which is required to reduce the PKC activity by 50% ([…]).

Assay [2] deals with cAMP-dependent protein kinase (PKA). The experiment in a line: Inhibition of cAMP-dependent protein kinase (PKA). As to conditions: partially purified PKA from swine brain; histone H1 substrate; cyclic AMP activation; 32° C., 2 minutes; read-out: IC50 (Test Procedure B). It counts as biochemical. As for the experimental part:
B: Inhibition of cAMP-dependent protein kinase (PKA): PKA activity is determined by measuring the transfer of ^32 P-labelled phosphate from ^32 P-g-ATP ([…]) to histone H1 ([…]) as the substrate. Partially purified PKA from swine brain is used as the enzyme source [DEAE chromatography according to the method of U. Kikkawa et al. (Methods Enzymol. 99, 288, 1983)]. Activation of the PKA is effected by cyclic AMP (2 mM) in Tris-HCl buffer (20 mM, pH 7.4). The test substances are used in dimethyl sulfoxide (DMSO)/buffer in the concentration range […]. The test is started by the addition of enzyme; after incubation at 32° C. for 2 minutes the reaction is stopped by the addition of 20% trichloroacetic acid (with 1% SDS and 1% sodium pyrophosphate). The precipitated radioactive histone protein is separated from excess ATP by filtration over nitrocellulose membranes and the radioactivity on the filter is measured in a scintillation counter. The inhibitory activity of the test substance is given as the micromolar concentration which is required to reduce the PKA activity by 50% ([…]).

Assay [3] relates to Mouse Hair Follicle. The experiment in a line: Cell proliferation in cultured mouse hair follicles (3H-thymidine incorporation, DNA synthesis). Type of assay: cell-based, mouse (CD-1). Particulars: for Emax: 3H-thymidine incorporation as percentage of control, whisker follicles of 4-day-old CD-1 mice, read-out: Mouse Hair Follicle DNA Synthesis Maximal Stimulation; for EC50: concentration giving 50% of the maximal stimulation of DNA synthesis. As for the experimental part:
C: Cell proliferation in cultured mouse hair follicles Mouse whisker follicles were isolated and cultured according to the method described by Buhl et al., J. Invest. Dermatol. 92, 315-320 (1989). Whisker pads were removed from 4-day-old CD-1 mice and vibrissae were carefully separated from the surrounding tissue with forceps under a dissecting microscope. Four hair follicles were incubated at 37° C. in 2 cm^2 wells in 1 ml of M199 medium containing 20% fetal bovine serum, in the presence or absence of test compound at varying concentrations. Each treatment group consisted of four wells. After 1 day of culture. ^3 H-thymidine was added to the wells to a final concentration of 5 μCi/ml and the follicles were incubated for a further three days. The follicles were then washed with phosphate-buffered saline and incorporated radioactivity was solubilized by addition of 0.5 ml of 1.0M NaOH and incubation for 18 h at 37° C. An aliquot of the alkali extracted was taken for measurement of radioactivity and results were expressed as dpm/follicle. Calculation of maximal stimulation and ED50 values The hair follicle ^3 H-thymidine incorporation values (dpm/follicle), obtained as described above, were then expressed as a percentage of control levels as follows: % control DNA synthesis for test compound=((treatment dpm/follicle)/(control dpm/follicle))×100 The dose-response relationship for each compound was then used to determine: 1) the maximal stimulation of DNA synthesis obtained for that compound, expressed as a percentage of control levels, and 2) the ED50 value, or the concentration (μM) of compound that gave rise to 50% of the maximal stimulation of DNA synthesis.
On the technique in general: Uptake of a labelled nucleoside into DNA is a usual measure of proliferation.

By IC50 is commonly meant the point on the concentration scale where inhibition reaches its midpoint. For the compound `CN(C(=O)c1ccccc1O)c1ccc(C(=O)O[C@@H]2CCCNC[C@H]2NC(=O)c2ccc(O)cc2)cc1` [I/25, 4-[(2-Hydroxy-benzoyl)-methyl-amino]-benzoic acid (3R,4R)-3-(4-hydroxy-benzoylamino)-azepan-4-yl ester trifluoroacetate (1:1)], the IC50 in assay [1] was 26 µM; in assay [2], 1.9 µM.

What is called EC50 is the concentration giving half of the maximal effect. Low values mean a more potent agent, high ones a less potent agent. `O=C(N[C@@H]1CNCCC[C@H]1OC(=O)c1ccc(S(=O)(=O)Oc2ccccc2O)cc1)c1ccc(O)cc1` [I/28, 4-(2-Hydroxy-phenoxysulfonyl)-benzoic acid (3R,4R)-3-(4-hydroxy-benzoylamino)-azepan-4-yl ester hydrochloride (1:1)]: in assay [3], the Emax stood at 349 ± 25% and the EC50 was found to be 40 µM.

On to `O=C(N[C@@H]1CNCCC[C@H]1OC(=O)c1ccc(O)cc1)c1ccc(OC(=O)c2c(O)cccc2O)cc1` [II/1, 4-Hydroxy-benzoic acid (3R,4R)-3-[4-(2,6-dihydroxy-benzoyloxy)-benzoylamino]-azepan-4-yl ester trifluoroacetate (1:1)], for which the values for the IC50 in assay [1] and in assay [2] were 30 µM and 0.038 µM, respectively. Besides, the Emax in assay [3] was found to be 468 ± 26%. The response in assay [3] was half-maximal at 10 µM (EC50).

As to `O=C(N[C@@H]1CNCCC[C@H]1OC(=O)c1ccc(O)cc1)c1ccc(O)cc1` [III/1, 4-Hydroxy-benzoic acid (3R,4R)-3-(4-hydroxy-benzoylamino)-azepan-4-yl ester hydrochloride (1:1)], in assay [1], the IC50 turned out to be 10 µM. In assay [2], the IC50 is 0.026 µM. Also, in assay [3], the Emax stood at 534 ± 52% and a half-maximal effect (EC50) was put at 5 µM.

On to `O=C(N[C@@H]1CNCCC[C@H]1OC(=O)c1ccc(O)c(O)c1)c1ccc(O)cc1` [I/15, 3,4-Dihydroxy-benzoic acid (3R,4R)-3-(4-hydroxy-benzoylamino)-azepan-4-yl ester trifluoroacetate (1:1)], for which the concentration for half-maximal inhibition (IC50) came out at 8.8 µM in assay [1] and 0.07 µM in assay [2].

`COc1cc2c(O)cccc2cc1C(=O)O[C@@H]1CCCNC[C@H]1NC(=O)c1ccc(O)cc1` [I/19, 5-Hydroxy-3-methoxy-naphthalene-2-carboxylic acid (3R,4R)-3-(4-hydroxy-benzoylamino)-azepan-4-yl ester trifluoroacetate (1:1)]: the IC50 in assay [1] is 24 µM. Also, in assay [2], the IC50 was found to be 0.041 µM. Besides, in assay [3], the Emax was determined as 371 ± 50% and the EC50 is 30 µM.
